Kd and Nurr1 homodimer formation data for two compounds are collected here from publication PMC7618597, “Dual Nurr1/RXR agonism of valerenic acid and synthetic mimetics enables dimer-selective Nurr1 modulation” (ACS medicinal chemistry letters, 2025).

What is called Kd is the equilibrium constant for the complex coming apart.

For one assay, the target named is T1, Nurr1 LBD (Homo sapiens, UniProt P43354).
T1 construct: made in house
Kind of assay: Isothermal titration calorimetry, recombinant Nurr1 LBD. Format: binding. The note with it: ITC. The protocol:
(§1) Isothermal titration calorimetry. ITC experiments for ligand binding to Nurr1 and RXR were conducted on an Affinity ITC instrument (TA Instruments, New Castle, DE) at 25 °C with a stirring rate of 75 rpm using recombinantly expressed ligand binding domain proteins as described previously5,6. The respective LBD protein (12–25 μM) in buffer (20 mM Tris pH 7.5, 100 mM NaCl, 5% glycerol) containing 2-4% DMSO was titrated with the test compounds (100-150 μM in the same buffer containing 2-4% DMSO) in 21–26 injections (1 × 1 μL and 20 × 4 to 25 × 4 μL) with an injection interval of 120 s. As control experiments, the test compounds were titrated to the buffer, and the buffer was titrated to the protein under otherwise identical conditions. The heat rates of the compound-Nurr1 LBD titrations were analyzed using NanoAnalyze software (TA Instruments, New Castle, DE) with an independent binding model.
On the technique in general: Isothermal titration calorimetry measures the heat released or taken up as one component is titrated into another.

The next assay addresses T2, RXRα LBD (Homo sapiens, UniProt P19793).
T2 construct: made in house
T2 sequence (P19793 227-458 limits assumed): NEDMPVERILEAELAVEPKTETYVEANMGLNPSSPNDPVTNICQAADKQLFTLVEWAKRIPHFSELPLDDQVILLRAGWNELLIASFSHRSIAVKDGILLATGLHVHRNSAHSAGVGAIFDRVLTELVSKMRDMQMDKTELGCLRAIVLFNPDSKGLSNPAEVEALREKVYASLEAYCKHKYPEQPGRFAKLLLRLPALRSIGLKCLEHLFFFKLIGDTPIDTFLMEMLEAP
Kind of assay: Isothermal titration calorimetry, recombinant RXRα LBD. In kind it is binding. The note with it: ITC. The method, then:
as §1

The next assay has as its target T3, Nurr1 homodimer (Homo sapiens, UniProt P43354).
T3 construct: Tb^3+-cryptate labeled and sGFP-labeled Nurr1 LBD proteins; FRET acceptor consisted of sGFP-Nurr1 LBD
Kind of assay: Nurr1 LBD homodimerization assay (HTRF). Format: biochemical. The note with it: 30 μM, Tb3+-cryptate and sGFP labeled Nurr1 LBD. The protocol: To determine the molecular response of the Nurr1:RXR heterodimer on dual agonist binding, we employed homogenous time-resolved fluorescence resonance energy transfer (HTRF) based assays with labeled Nurr1 and RXR LBD proteins. Tb^3+-cryptate as streptavidin conjugate served as FRET donor and was coupled to biotinylated proteins. sGFP fusion proteins of the receptors of interest were used as FRET acceptors. Ligand effects on dimer formation were determined by titrating the sGFP-labeled dimer partner with a fixed concentration of the Tb^3+-labeled counterpart. […] The same effect was also observable for the natural product 1 (Figure S3).
Nurr1 dimerization assays (HTRF). Modulation of Nurr1 LBD homodimerization and heterodimerization of the LDBs of Nurr1 and RXRα was investigated by HTRF as reported previously4. Nurr1 LBD or RXRα LBD proteins labeled with sGFP were titrated against a fixed concentration of Tb3+-cryptate as streptavidin conjugate (Tb-SA) (610SATLF, Revvity) coupled to biotinylated Nurr1 LBD protein in the presence of test compounds at 30 µM or absence of compound as a negative control (apo). Assay solutions were prepared in buffer containing 25 mM HEPES pH 7.5, 150 mM KF, 5% (m/v) glycerol, 5 mM DTT, 0.1% (m/v) CHAPS and 1%
DMSO. The FRET donor complex was formed from biotinylated Nurr1 LBD (final concentration 0.188 nM) and Tb-SA (0.375 nM) and was kept constant. For the homodimerization assay, the FRET acceptor consisted of sGFP-Nurr1 LBD, which was titrated from 0.5 µM, while free sGFP was added to keep the total GFP content stable at 0.5 µM. […] Samples were equilibrated at room temperature for 2 h and fluorescence intensities (FI) after excitation at 340 nm were recorded at 520 nm for sGFP acceptor fluorescence and at 620 for Tb-SA donor fluorescence on a SPARK plate reader (Tecan Group Ltd.). […]
Evaluation of Nurr1-regulated gene expression. […] RNA concentration and purity were assessed using a NanoDrop One UV-vis spectrophotometer (Thermo Fisher Scientific) at 260/280 nm. […]
A general note: Time-resolved FRET reads energy transfer from a long-lived donor to a nearby acceptor.

SMILES strings stand for the structures.

T3 sequence (P43354 360-595 limits assumed): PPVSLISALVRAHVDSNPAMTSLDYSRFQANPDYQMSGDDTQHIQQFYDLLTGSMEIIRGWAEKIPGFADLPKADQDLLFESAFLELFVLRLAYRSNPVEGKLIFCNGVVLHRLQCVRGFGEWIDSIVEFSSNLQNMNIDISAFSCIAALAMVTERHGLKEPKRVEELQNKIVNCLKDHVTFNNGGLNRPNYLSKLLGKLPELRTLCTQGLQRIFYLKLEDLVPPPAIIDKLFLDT
T1 sequence (P43354 360-595 limits assumed): as above

As to `Cc1c2c(n(-c3ccc(CC(=O)O)cc3)c1C)CCC(F)(F)C2` [compound 2], the Kd at Nurr1 LBD was found to be 600 nM; on RXRα LBD it was 1100 nM. At Nurr1 homodimer, the Nurr1 homodimer formation entry is “markedly diminished”.

For `Cc1c(C)n(-c2ccc(CC(=O)O)cc2)c2ccc(F)cc12` [compound 3], the Kd at Nurr1 LBD was 600 nM; on RXRα LBD, 200 nM. At Nurr1 homodimer, the Nurr1 homodimer formation entry is “markedly diminished”.
